From paper PMC8406311, “Change in Cofactor Specificity of Oxidoreductases by Adaptive Evolution of an Escherichia coli NADPH-Auxotrophic Strain” (mBio, 2021)
Numbering of substitutions follows the chain as printed.

Key:
Format in all cases: biochemical
[1] = molecular target: T1, MaeA (NAD+-dependent malic enzyme) (Escherichia coli, UniProt P26616); assay: NAD(P)H formation at […] nm, Michaelis-Menten fit; conditions: 50 mM Tris HCl pH 7.5, 10 mM MgCl2, 30 °C, apparent
T1 construct: N-terminal His-tag (modified pET22b(+)), expressed in E. coli BL21(DE3), HisTrap purified
T1 sequence (P26616 1-565): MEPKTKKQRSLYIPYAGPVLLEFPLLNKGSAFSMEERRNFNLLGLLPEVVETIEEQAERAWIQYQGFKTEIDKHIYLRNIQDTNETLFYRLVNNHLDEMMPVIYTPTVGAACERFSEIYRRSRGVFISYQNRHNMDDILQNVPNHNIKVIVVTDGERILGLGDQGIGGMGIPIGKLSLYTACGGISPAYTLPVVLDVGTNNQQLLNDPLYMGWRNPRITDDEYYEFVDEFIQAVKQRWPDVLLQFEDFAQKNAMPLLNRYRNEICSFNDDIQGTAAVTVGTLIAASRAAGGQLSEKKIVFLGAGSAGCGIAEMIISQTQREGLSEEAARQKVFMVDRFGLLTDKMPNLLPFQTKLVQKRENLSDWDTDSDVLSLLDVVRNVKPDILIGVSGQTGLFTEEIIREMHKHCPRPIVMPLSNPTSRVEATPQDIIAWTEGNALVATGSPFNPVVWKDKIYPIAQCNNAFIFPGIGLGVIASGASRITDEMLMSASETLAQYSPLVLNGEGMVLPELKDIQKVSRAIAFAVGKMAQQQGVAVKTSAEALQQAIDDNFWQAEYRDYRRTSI

[2] = molecular target: T2, MaeA (NAD+-dependent malic enzyme) (Escherichia coli, UniProt P26616, L176V/D336N); assay: NAD(P)H formation at […] nm, Michaelis-Menten fit; conditions: 50 mM Tris HCl pH 7.5, 10 mM MgCl2, 30 °C; L-malate at 6 to 10 times its KM; apparent
T2 construct: N-terminal His-tag (modified pET22b(+)), expressed in E. coli BL21(DE3), HisTrap purified
T2 sequence (P26616 1-565 L176V/D336N): T1 sequence (P26616 1-565) with L176V, D336N

[3] = molecular target: T3, MaeA (NAD+-dependent malic enzyme) (Escherichia coli, UniProt P26616, I283N/D336A); assay: NAD(P)H formation at […] nm, Michaelis-Menten fit; conditions: 50 mM Tris HCl pH 7.5, 10 mM MgCl2, 30 °C; L-malate at 6 to 10 times its KM; apparent
T3 construct: N-terminal His-tag (modified pET22b(+)), expressed in E. coli BL21(DE3), HisTrap purified
T3 sequence (P26616 1-565 I283N/D336A): T1 sequence (P26616 1-565) with I283N, D336A

[4] = molecular target: T4, MaeA (NAD+-dependent malic enzyme) (Escherichia coli, UniProt P26616, D336N); assay: NAD(P)H formation at […] nm, Michaelis-Menten fit; conditions: 50 mM Tris HCl pH 7.5, 10 mM MgCl2, 30 °C; L-malate at 6 to 10 times its KM; apparent
T4 construct: N-terminal His-tag (modified pET22b(+)), expressed in E. coli BL21(DE3), HisTrap purified
T4 sequence (P26616 1-565 D336N): T1 sequence (P26616 1-565) with D336N

[5] = molecular target: T5, Lpd (dihydrolipoamide dehydrogenase; lipoamide dehydrogenase) (Escherichia coli, UniProt P0A9P0, E205G); assay: NAD(P)H formation at […] nm, nonlinear fit of initial rates; conditions: 100 mM Na phosphate, 100 mM KCl, 8 mM TCEP, pH 7.6, room temperature; 4 mM dihydrolipoamide; apparent
T5 construct: gene lpdA; N-terminal His-tag (modified pET22b(+)), expressed in E. coli BL21(DE3) Codon+, HisTrap and gel filtration

[6] = molecular target: T6, Lpd (dihydrolipoamide dehydrogenase; lipoamide dehydrogenase) (Escherichia coli, UniProt P0A9P0, E205A); assay: as above; conditions: 100 mM Na phosphate, 100 mM KCl, 8 mM TCEP, pH 7.6, room temperature; 4 mM dihydrolipoamide; apparent
T6 construct: gene lpdA; N-terminal His-tag (modified pET22b(+)), expressed in E. coli BL21(DE3) Codon+, HisTrap and gel filtration

[7] = molecular target: T7, Lpd (dihydrolipoamide dehydrogenase; lipoamide dehydrogenase) (Escherichia coli, UniProt P0A9P0); assay: as above; conditions: 100 mM Na phosphate, 100 mM KCl, 8 mM TCEP, pH 7.6, room temperature, apparent
T7 construct: gene lpdA; N-terminal His-tag (modified pET22b(+)), expressed in E. coli BL21(DE3) Codon+, HisTrap and gel filtration

[8] = L-malate at 6 to 10 times its KM

T7 sequence (P0A9P0 2-474): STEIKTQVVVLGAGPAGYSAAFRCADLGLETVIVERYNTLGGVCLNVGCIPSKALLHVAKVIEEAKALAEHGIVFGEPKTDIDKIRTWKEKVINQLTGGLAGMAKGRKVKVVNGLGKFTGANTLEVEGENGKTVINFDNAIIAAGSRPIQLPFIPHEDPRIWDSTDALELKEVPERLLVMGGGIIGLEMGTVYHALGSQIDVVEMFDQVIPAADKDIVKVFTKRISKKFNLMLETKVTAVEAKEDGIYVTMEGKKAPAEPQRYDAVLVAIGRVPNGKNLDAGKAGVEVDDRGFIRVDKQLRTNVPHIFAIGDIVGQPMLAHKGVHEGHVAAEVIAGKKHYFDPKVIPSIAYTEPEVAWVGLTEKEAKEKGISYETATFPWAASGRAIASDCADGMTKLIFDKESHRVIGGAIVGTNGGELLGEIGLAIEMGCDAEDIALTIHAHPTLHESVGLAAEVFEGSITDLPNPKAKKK
T6 sequence (P0A9P0 2-474 E205A): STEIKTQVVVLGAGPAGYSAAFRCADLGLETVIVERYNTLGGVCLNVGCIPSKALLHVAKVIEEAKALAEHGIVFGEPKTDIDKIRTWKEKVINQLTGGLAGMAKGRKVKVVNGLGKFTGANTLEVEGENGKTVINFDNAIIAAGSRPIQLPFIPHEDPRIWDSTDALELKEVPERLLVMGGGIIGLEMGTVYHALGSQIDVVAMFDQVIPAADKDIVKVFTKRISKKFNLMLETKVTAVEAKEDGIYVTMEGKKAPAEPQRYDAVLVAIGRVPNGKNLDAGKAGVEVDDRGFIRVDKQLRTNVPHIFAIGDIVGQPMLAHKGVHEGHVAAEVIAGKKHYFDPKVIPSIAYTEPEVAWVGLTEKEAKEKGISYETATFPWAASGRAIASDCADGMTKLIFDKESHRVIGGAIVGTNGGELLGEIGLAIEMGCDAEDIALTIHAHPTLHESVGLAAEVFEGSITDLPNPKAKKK
T5 sequence (P0A9P0 2-474 E205G): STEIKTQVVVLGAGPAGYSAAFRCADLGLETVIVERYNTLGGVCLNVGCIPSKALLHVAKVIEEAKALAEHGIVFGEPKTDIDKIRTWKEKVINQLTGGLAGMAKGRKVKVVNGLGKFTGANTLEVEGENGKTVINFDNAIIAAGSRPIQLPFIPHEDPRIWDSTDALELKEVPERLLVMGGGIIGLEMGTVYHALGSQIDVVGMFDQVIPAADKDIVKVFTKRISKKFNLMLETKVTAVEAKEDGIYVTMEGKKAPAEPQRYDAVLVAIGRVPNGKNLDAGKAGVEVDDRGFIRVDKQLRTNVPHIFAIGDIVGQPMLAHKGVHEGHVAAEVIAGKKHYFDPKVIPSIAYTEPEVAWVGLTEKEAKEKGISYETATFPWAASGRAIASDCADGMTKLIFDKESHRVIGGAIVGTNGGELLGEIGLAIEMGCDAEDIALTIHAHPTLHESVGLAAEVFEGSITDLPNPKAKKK

SMILES | Km ([1]; other substrates at 6 to 10 times their KM) [µM] | Km [2] [µM] | Km [3] [µM] | Km [4] [µM] | Km [5] [µM] | Km [1, 8] [µM] | Km [6] [µM] | Km ([7]; 4 mM dihydrolipoamide) [µM] | Km [7] [µM]
O=C(O)C[C@H](O)C(=O)O [L-malate] | 630 ± 40 | – | – | – | – | – | – | – | –
NC(=O)c1ccc[n+]([C@@H]2O[C@H](COP(=O)(O)OP(=O)(O)OC[C@H]3O[C@@H](n4cnc5c(N)ncnc54)[C@H](OP(=O)(O)O)[C@@H]3O)[C@@H](O)[C@H]2O)c1 [NADP^+] | – | 16 ± 1 | 13 | 91 ± 10 | 3480 ± 1030 | 3600 ± 400 | 2480 ± 690 | – | –
NC(=O)c1ccc[n+]([C@@H]2O[C@H](COP(=O)(O)OP(=O)(O)OC[C@H]3O[C@@H](n4cnc5c(N)ncnc54)[C@H](O)[C@@H]3O)[C@@H](O)[C@H]2O)c1 [NAD^+] | – | 270 ± 30 | 270 ± 30 | 1500 ± 200 | 9490 ± 1820 | 100 ± 20 | 6350 ± 380 | 440 ± 60 | –
NC(=O)CCCC[C@@H](S)CCS [dihydrolipoamide] | – | – | – | – | – | – | – | – | 180 ± 20
